Measurements as given in the NIST ThermoML archive (doi:10.1016/j.jct.2016.06.023).
± gives the expanded uncertainty stated by the source.

Experiments:
[1] = 101.3 kPa, Liquid, Vibrating tube method
[2] = mn = molality of the nth substance listed, in mol/kg; conditions: 101.3 kPa, Liquid, Vibrating tube method, m2 = 0

| mass density ([1]; 278.15 K) | mass density ([1]; 283.15 K) | mass density ([1]; 308.15 K) | mass density ([1]; 328.15 K) | mass density ([1]; 333.15 K) | mass density ([1]; 338.15 K) | mass density ([1]; 343.15 K) | mass density ([2]; 278.15 K) | mass density ([2]; 283.15 K) | mass density ([2]; 308.15 K) | mass density ([2]; 328.15 K) | mass density ([2]; 333.15 K) | mass density ([2]; 338.15 K) | mass density ([2]; 343.15 K) | SMILES |
| --- | --- | --- | --- | --- | --- | --- | --- | --- | --- | --- | --- | --- | --- | --- |
| 999.99 ± 0.4 kg/m3 | 999.73 ± 0.41 kg/m3 | 994.06 ± 0.41 kg/m3 | 985.73 ± 0.4 kg/m3 | 983.24 ± 0.4 kg/m3 | 980.59 ± 0.4 kg/m3 | 977.81 ± 0.4 kg/m3 | – | – | – | – | – | – | – | O [water] |
| – | – | – | – | – | – | – | 999.99 ± 0.4 kg/m3 | 999.73 ± 0.41 kg/m3 | 994.06 ± 0.41 kg/m3 | 985.73 ± 0.4 kg/m3 | 983.24 ± 0.4 kg/m3 | 980.59 ± 0.4 kg/m3 | 977.81 ± 0.4 kg/m3 | O [water] + O=C(O)CC(=O)O |
